Some test systems named below: DU-145 prostate; CAKI-1 renal; MDA-MB-231 breast; SK-MEL-28 melanoma; OVCAR-3 ovarian; NCI-H460 lung; NCI-H226 lung; HCT-116 colon; HCC-2998 colon; NCI/ADR-RES ovarian.
Holding throughout (experiment): inhibition of tumour cell growth, NCI panel, 48 h

The values that follow come from PubChem BioAssay (NCI).

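Step 1: Grow cells in 96-well plates. Step 2: Expose to compound for 48 hours at 5 concentrations. Step 3: Interpolate endpoints linearly; if unreached, use highest concentration. Here, GI50 denotes the concentration required for 50% inhibition of growth. TGI: concentration producing complete growth inhibition.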

For the molecule `Fc1ccc(Nc2ccnc(N3CCN(c4ccnc5cc(Cl)ccc45)CC3)n2)cc1`, the GI50 was 3.96 µM in the experiment with DU-145 prostate; 1.83 µM in the experiment on CAKI-1 renal; 1.51 µM in the experiment with MDA-MB-231 breast; 3.27 µM in the experiment on SK-MEL-28 melanoma; 2.53 µM in the experiment with OVCAR-3 ovarian; 1.74 µM with NCI-H460 lung. Further, the GI50 in the experiment with NCI-H226 lung is 2.52 µM; in the experiment with HCT-116 colon, 1.97 µM; with HCC-2998 colon, 3.4 µM; with NCI/ADR-RES ovarian it was 2.24 µM. In addition, the TGI with DU-145 prostate is 55.1 µM; with CAKI-1 renal, 5.3 µM; in the experiment on MDA-MB-231 breast it was 4.33 µM; in the experiment with SK-MEL-28 melanoma, 12.9 µM; in the experiment on OVCAR-3 ovarian it was 7.38 µM; with NCI-H460 lung it was 4.54 µM. Further, the TGI worked out at 17.5 µM with NCI-H226 lung, 5.24 µM in the experiment on HCT-116 colon, 13.7 µM in the experiment on HCC-2998 colon and 6.41 µM with NCI/ADR-RES ovarian.

Consider `Cc1cc(S(=O)(=O)Nc2nc3ccccc3s2)c(SCc2ccccc2)cc1Cl`, for which the GI50 was 15.5 µM in the experiment with DU-145 prostate; 4.12 µM in the experiment with CAKI-1 renal; 16.9 µM with MDA-MB-231 breast; 21.9 µM in the experiment with SK-MEL-28 melanoma; 8 µM with OVCAR-3 ovarian; 21.4 µM in the experiment on NCI-H460 lung. Moreover, the GI50 in the experiment on NCI-H226 lung is 19.3 µM; in the experiment with HCT-116 colon it was 15.1 µM; in the experiment on HCC-2998 colon, 13.8 µM; in the experiment with NCI/ADR-RES ovarian, 15.8 µM. The TGI in the experiment on DU-145 prostate was 36.9 µM; in the experiment on CAKI-1 renal, 17.6 µM; in the experiment with MDA-MB-231 breast, 37.7 µM; with SK-MEL-28 melanoma, 52.7 µM; in the experiment with OVCAR-3 ovarian it was 23.3 µM; in the experiment on NCI-H460 lung, above 100 µM. For the same molecule, the TGI with NCI-H226 lung was 45.9 µM; with HCT-116 colon it was 28.4 µM; with HCC-2998 colon it was 26.7 µM; in the experiment with NCI/ADR-RES ovarian, 35.9 µM.

Take `OCC1OC(N2CCN(C3OC(CO)C(O)C(O)C3O)CC2)C(O)C(O)C1O` (configuration not stated): the TGI with DU-145 prostate, in the experiment on CAKI-1 renal, in the experiment on MDA-MB-231 breast, in the experiment with SK-MEL-28 melanoma, in the experiment with OVCAR-3 ovarian and with NCI-H460 lung was above 100 µM throughout. Moreover, the TGI with NCI-H226 lung, in the experiment on HCT-116 colon, in the experiment on HCC-2998 colon and in the experiment on NCI/ADR-RES ovarian was above 100 µM throughout.

As to `C[C@H]1O[C@@H](O[C@H]2[C@@H](O)C[C@H](O[C@H]3[C@@H](O)C[C@H](O[C@H]4CC[C@]5(C)C6CC[C@]7(C)[C@@H](C8=CC(=O)OC8)CC[C@]7(O)C6CC[C@@H]5C4)O[C@@H]3C)O[C@@H]2C)C[C@H](O)[C@@H]1O` (some centres not stated), the GI50 in the experiment with DU-145 prostate is 0.0113 µM; in the experiment with CAKI-1 renal, 0.0126 µM; in the experiment on MDA-MB-231 breast, 0.0621 µM; with SK-MEL-28 melanoma it was 0.0313 µM; with NCI-H460 lung it was 0.00973 µM; in the experiment on NCI-H226 lung, 0.0476 µM. Moreover, the GI50 in the experiment on HCC-2998 colon is 0.0361 µM; with NCI/ADR-RES ovarian, 0.0144 µM. The TGI in the experiment with DU-145 prostate was found to be 0.0249 µM; with CAKI-1 renal, 0.0339 µM; in the experiment on MDA-MB-231 breast it was 0.353 µM; with SK-MEL-28 melanoma, 0.101 µM; with OVCAR-3 ovarian, 0.043 µM; in the experiment on NCI-H460 lung it was 0.0231 µM. The TGI with NCI-H226 lung is 0.115 µM; in the experiment with HCT-116 colon, 0.0494 µM; in the experiment with HCC-2998 colon, 0.174 µM; in the experiment with NCI/ADR-RES ovarian, 0.0435 µM.

As to `COc1cc(-c2cc(-c3ccc(Nc4nc(Nc5ccc(Cl)cc5)nc(Nc5ccc(Cl)cc5)n4)cc3)no2)cc(OC)c1OC`, the GI50 with DU-145 prostate is 7.08 µM; in the experiment with CAKI-1 renal it was 5.53 µM; in the experiment on MDA-MB-231 breast, 5.15 µM; in the experiment on SK-MEL-28 melanoma, 14.4 µM; in the experiment with OVCAR-3 ovarian, 6.68 µM; in the experiment with NCI-H460 lung, 6.79 µM. Also, the GI50 is 27 µM with NCI-H226 lung, 4.31 µM in the experiment on HCT-116 colon, 13.1 µM in the experiment with HCC-2998 colon and 11.3 µM in the experiment with NCI/ADR-RES ovarian. In addition, the TGI with DU-145 prostate was above 100 µM; in the experiment with CAKI-1 renal, above 100 µM; in the experiment on MDA-MB-231 breast it was above 100 µM; in the experiment on SK-MEL-28 melanoma it was above 100 µM; with OVCAR-3 ovarian, 88.9 µM; with NCI-H460 lung, 46.4 µM. Also, the TGI in the experiment with NCI-H226 lung is above 100 µM; with HCT-116 colon it was 42.9 µM; with HCC-2998 colon it was 91.3 µM; in the experiment on NCI/ADR-RES ovarian it was above 100 µM.

As to `CC(=O)Nc1ccc2c(c1)[nH]c(=O)c1cc(NC(C)=O)ccc12`, the GI50 in the experiment with DU-145 prostate is above 100 µM; in the experiment on CAKI-1 renal, above 100 µM; in the experiment with MDA-MB-231 breast, 90.2 µM; in the experiment with SK-MEL-28 melanoma, above 100 µM; with OVCAR-3 ovarian it was above 100 µM; in the experiment on NCI-H460 lung it was above 100 µM. Moreover, the GI50 in the experiment with NCI-H226 lung, in the experiment on HCT-116 colon, with HCC-2998 colon and in the experiment on NCI/ADR-RES ovarian was above 100 µM in each case. Also, the TGI in the experiment on DU-145 prostate, in the experiment on CAKI-1 renal, in the experiment with MDA-MB-231 breast, in the experiment with SK-MEL-28 melanoma, with OVCAR-3 ovarian and with NCI-H460 lung was above 100 µM in each case. For the same molecule, the TGI in the experiment on NCI-H226 lung, with HCT-116 colon, in the experiment on HCC-2998 colon and in the experiment on NCI/ADR-RES ovarian was above 100 µM in each case.

As to `CCN(CC(O)COc1ccc2c(c1)[n+]([O-])nc(N)[n+]2[O-])C(C)=O` (configuration not stated), the TGI in the experiment with DU-145 prostate, in the experiment on CAKI-1 renal, in the experiment on MDA-MB-231 breast, with SK-MEL-28 melanoma, in the experiment with OVCAR-3 ovarian and in the experiment with NCI-H460 lung was above 100 µM in each case. The TGI in the experiment on NCI-H226 lung, in the experiment on HCT-116 colon and in the experiment on NCI/ADR-RES ovarian was above 100 µM in each case.

With `O=C(Nc1n[nH]c2cc(-c3ccc(F)cc3)ccc12)C1CC1`, the GI50 is 10.2 µM in the experiment on DU-145 prostate; 9.75 µM in the experiment on CAKI-1 renal; 12.6 µM with MDA-MB-231 breast; 12.3 µM in the experiment on SK-MEL-28 melanoma; 6.33 µM with OVCAR-3 ovarian; 7.47 µM in the experiment on NCI-H460 lung. Also, the GI50 with NCI-H226 lung was 9.29 µM; with HCT-116 colon it was 8.89 µM; in the experiment with HCC-2998 colon it was 8.27 µM; in the experiment with NCI/ADR-RES ovarian, 5.27 µM. For the same molecule, the TGI in the experiment on DU-145 prostate was above 25 µM; in the experiment with CAKI-1 renal, above 25 µM; with MDA-MB-231 breast, above 25 µM; with SK-MEL-28 melanoma, above 25 µM; in the experiment on OVCAR-3 ovarian it was 20 µM; in the experiment with NCI-H460 lung it was above 25 µM. The TGI with NCI-H226 lung was above 25 µM; with HCT-116 colon, above 25 µM; in the experiment with HCC-2998 colon, above 25 µM; in the experiment with NCI/ADR-RES ovarian it was 22.6 µM.
